Experimental data as given in patent US20100267561A1, “HERBICIDAL PYRIDAZINONE DERIVATIVES” (priority 2007, published 2010).
Where two headings read alike, the source gives them in different places.

Key:
Format in all cases: in vivo
[1] = tested on: barnyardgrass (Echinochloa crus-galli); test: Test A pre-/postemergence plant response; settings: for pest or weed control at 1000 g/ha: Echinochloa crus-galli, 240 h, read-out: Plant response rating, Barnyardgrass
Summary of the method: (§1)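 Scores reflect visual plant injury relative to untreated controls on a 0–100 scale, recorded approximately 10 days after simultaneous preemergence soil spraying and postemergence spraying of one- to two-leaf seedlings grown in loam–sand.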

corn (Zea mays) = test: Test A pre-/postemergence plant response; settings: for Corn plant response rating (crop injury, 0 = no effect, 100 = complete kill) at 1000 g/ha: Zea mays, 240 h
Summary of the method: as §1

[2] = tested on: giant foxtail (Setaria faberi); test: Test A pre-/postemergence plant response; settings: for pest or weed control at 1000 g/ha: Setaria faberi, 240 h, read-out: Plant response rating, Foxtail, Giant
Summary of the method: as §1

[3] = tested on: large crabgrass (Digitaria sanguinalis); test: Test A pre-/postemergence plant response; settings: for pest or weed control at 1000 g/ha: Digitaria sanguinalis, 240 h, read-out: Plant response rating, Crabgrass, Large
Summary of the method: as §1

[4] = tested on: morningglory (Ipomoea coccinea); test: Test A pre-/postemergence plant response
Summary of the method: as §1

[5] = tested on: pigweed (Amaranthus retroflexus); test: Test A pre-/postemergence plant response; settings: for pest or weed control at 1000 g/ha: Amaranthus retroflexus, 240 h, read-out: Plant response rating, Pigweed
Summary of the method: as §1

[6] = tested on: velvetleaf (Abutilon theophrasti); test: Test A pre-/postemergence plant response
Summary of the method: as §1

[7] = tested on: wheat (Triticum aestivum); test: Test A pre-/postemergence plant response; settings: for plant injury at 1000 g/ha: Triticum aestivum, 240 h, read-out: Plant response rating, Wheat
Summary of the method: as §1

[8] = tested on: eastern black (E.B.) nightshade (Solanum ptycanthum); test: Test B pre-/postemergence plant response; settings: Preemergence
Summary of the method: (§2)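 Seeds were sown and sprayed preemergence, while plants at 2 to 18 cm (1- to 4-leaf stage) got postemergence sprays. Compounds were formulated in a non-phytotoxic solvent mixture with surfactant. After 13 to 15 days in a greenhouse, injury was rated visually against untreated controls, 0 (no effect) to 100 (complete control).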

[9] = tested on: green foxtail (Setaria viridis); test: Test B pre-/postemergence plant response; settings: for pest or weed control at 31 g/ha / pest or weed control at 62 g/ha / pest or weed control at 125 g/ha / pest or weed control at 250 g/ha: Setaria viridis, read-out: Plant response rating, Foxtail, Green
Summary of the method: as §2

[10] = tested on: barnyardgrass (Echinochloa crus-galli); test: Test B flooded paddy test plant response
Summary of the method: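 Paddy-water application to 2-leaf plants in pots held under 3 cm of flooding; response is a 0–100 visual control rating against controls after 13 to 15 days, and a dash marks a missing result.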

[11] = Postemergence, 125 g ai/ha, 0 to 100 scale, 0 no effect, 100 complete control
[12] = Postemergence, 500 g ai/ha, 0 to 100 scale, 0 no effect, 100 complete control
[13] = Preemergence, 125 g ai/ha, 0 to 100 scale (0 no effect, 100 complete control)
[14] = Preemergence, 500 g ai/ha, 0 to 100 scale (0 no effect, 100 complete control)
[15] = 31 g ai/ha, 0 to 100 scale, 0 no effect, 100 complete control
[16] = Preemergence, 31 g ai/ha, 0 to 100 scale, 0 no effect, 100 complete control
[17] = Preemergence, 62 g ai/ha, scale 0 to 100
[18] = Preemergence, 125 g ai/ha, scale 0 to 100
[19] = Preemergence, 250 g ai/ha, scale 0 to 100
[20] = Flood (flooded paddy test), 62 g ai/ha, scale 0 to 100, 0 no effect, 100 complete control
[21] = Flood (flooded paddy test), 125 g ai/ha, scale 0 to 100, 0 no effect, 100 complete control
[22] = Flood (flooded paddy test), 250 g ai/ha, scale 0 to 100, 0 no effect, 100 complete control
[23] = Flood, 31 g ai/ha, scale 0 to 100
[24] = post-emergence, Postemergence, 1000 g ai/ha, 0 to 100 scale, 0 no effect, 100 complete control
[25] = pre-emergence, Preemergence, 1000 g ai/ha, 0 to 100 scale (0 no effect, 100 complete control)
[26] = Postemergence, 1000 g ai/ha, 0 to 100 scale, 0 no effect, 100 complete control
[27] = Preemergence, 1000 g ai/ha, 0 to 100 scale (0 no effect, 100 complete control)

4-[3-(4-chlorophenyl)-5-methyl-1H-pyrazol-3-yl]-5-hydroxy-2-methyl-3(2H)-pyridazinone [Compound 3]
0: Plant response rating, Morningglory [4, 13] | Plant response rating, Morningglory [4, 14] | Plant response rating, Pigweed [5, 11] | Plant response rating, Pigweed [5, 13] | Plant response rating, Pigweed [5, 14] | Plant response rating, Velvetleaf [6, 11] | Plant response rating, Velvetleaf [6, 13] | Plant response rating, Barnyardgrass [10, 23]
60: Plant response rating, Morningglory [4, 12] | Plant response rating, Barnyardgrass [10, 20]
80: Plant response rating, Corn (corn (Zea mays); [13]) | Plant response rating, Barnyardgrass [10, 22]
10: Plant response rating, Pigweed [5, 12] | Plant response rating, Velvetleaf [6, 14]
50: Plant response rating, Morningglory [4, 11] | Plant response rating, Velvetleaf [6, 12]
70: Plant response rating, Wheat [7, 11] | Plant response rating, Wheat [7, 13] | Plant response rating, Barnyardgrass [10, 21]
90: Plant response rating, Barnyardgrass [1, 13] | Plant response rating, Corn (corn (Zea mays); [11]) | Plant response rating, Corn (corn (Zea mays); [14]) | Plant response rating, Wheat [7, 12] | Plant response rating, Wheat [7, 14] | Plant response rating, Nightshade, E. B. [8, 15] | Plant response rating, Foxtail, Green ([9]; Postemergence, 31 g ai/ha, scale 0 to 100, 0 no effect, 100 complete control)
100: Plant response rating, Barnyardgrass [1, 11] | Plant response rating, Barnyardgrass [1, 12] | Plant response rating, Barnyardgrass [1, 14] | Plant response rating, Corn (corn (Zea mays); [12]) | Plant response rating, Foxtail, Giant [2, 11] | Plant response rating, Foxtail, Giant [2, 12] | Plant response rating, Foxtail, Giant [2, 13] | Plant response rating, Foxtail, Giant [2, 14] | Plant response rating, Crabgrass, Large [3, 11] | Plant response rating, Crabgrass, Large [3, 12] | Plant response rating, Crabgrass, Large [3, 13] | Plant response rating, Crabgrass, Large [3, 14] | Plant response rating, Nightshade, E. B. ([8]; 62 g ai/ha, scale 0 to 100) | Plant response rating, Nightshade, E. B. ([8]; 125 g ai/ha, scale 0 to 100) | Plant response rating, Nightshade, E. B. ([8]; 250 g ai/ha, scale 0 to 100) | Plant response rating, Foxtail, Green ([9]; Postemergence, 62 g ai/ha, scale 0 to 100) | Plant response rating, Foxtail, Green ([9]; Postemergence, 125 g ai/ha, scale 0 to 100) | Plant response rating, Foxtail, Green ([9]; Postemergence, 250 g ai/ha, scale 0 to 100) | Plant response rating, Foxtail, Green [9, 16] | Plant response rating, Foxtail, Green [9, 17] | Plant response rating, Foxtail, Green [9, 18] | Plant response rating, Foxtail, Green [9, 19]

Cc1cc(-c2ccc(C(F)(F)F)cc2)nn1-c1c(O)cnn(C)c1=O [Compound 1, 5-hydroxy-2-methyl-4-[5-methyl-3-[4-(trifluoromethyl)phenyl]-1H-pyrazol-1-yl]-3(2H)-pyridazinone]
60: Plant response rating, Morningglory [4, 26] | Plant response rating, Velvetleaf [6, 26]
0: Plant response rating, Morningglory [4, 27] | Plant response rating, Velvetleaf [6, 27]
95%: pest or weed control at 31 g/ha ([9]; post-emergence, Postemergence, 31 g ai/ha, scale 0 to 100, 0 no effect, 100 complete control)
30%: pest or weed control at 1000 g/ha [5, 24]
100%: pest or weed control at 1000 g/ha [1, 24] | pest or weed control at 1000 g/ha [1, 25] | Corn plant response rating (crop injury, 0 = no effect, 100 = complete kill) at 1000 g/ha (corn (Zea mays); [24]) | Corn plant response rating (crop injury, 0 = no effect, 100 = complete kill) at 1000 g/ha (corn (Zea mays); [25]) | pest or weed control at 1000 g/ha [2, 24] | pest or weed control at 1000 g/ha [2, 25] | pest or weed control at 1000 g/ha [3, 24] | plant injury at 1000 g/ha [7, 24] | pest or weed control at 62 g/ha ([9]; post-emergence, Postemergence, 62 g ai/ha, scale 0 to 100) | pest or weed control at 125 g/ha ([9]; post-emergence, Postemergence, 125 g ai/ha, scale 0 to 100) | pest or weed control at 250 g/ha ([9]; post-emergence, Postemergence, 250 g ai/ha, scale 0 to 100) | pest or weed control at 31 g/ha ([9]; pre-emergence, Preemergence, 31 g ai/ha, 0 to 100 scale, 0 no effect, 100 complete control) | pest or weed control at 62 g/ha ([9]; pre-emergence, Preemergence, 62 g ai/ha, scale 0 to 100) | pest or weed control at 125 g/ha ([9]; pre-emergence, Preemergence, 125 g ai/ha, scale 0 to 100) | pest or weed control at 250 g/ha ([9]; pre-emergence, Preemergence, 250 g ai/ha, scale 0 to 100)
20%: pest or weed control at 1000 g/ha [5, 25] | pest or weed control at 125 g/ha ([10]; Echinochloa crus-galli, Flood (flooded paddy test), 125 g ai/ha, scale 0 to 100, 0 no effect, 100 complete control, read-out: Plant response rating, Barnyardgrass)
90%: pest or weed control at 1000 g/ha [3, 25] | plant injury at 1000 g/ha [7, 25]
60%: pest or weed control at 250 g/ha ([10]; Echinochloa crus-galli, Flood (flooded paddy test), 250 g ai/ha, scale 0 to 100, 0 no effect, 100 complete control, read-out: Plant response rating, Barnyardgrass)
0%: pest or weed control at 31 g/ha ([8]; Solanum, pre-emergence, 31 g ai/ha, 0 to 100 scale, 0 no effect, 100 complete control, read-out: Plant response rating, Nightshade, E. B.) | pest or weed control at 62 g/ha ([8]; Solanum, pre-emergence, 62 g ai/ha, scale 0 to 100, read-out: Plant response rating, Nightshade, E. B.) | pest or weed control at 125 g/ha ([8]; Solanum, pre-emergence, 125 g ai/ha, scale 0 to 100, read-out: Plant response rating, Nightshade, E. B.) | pest or weed control at 250 g/ha ([8]; Solanum, pre-emergence, 250 g ai/ha, scale 0 to 100, read-out: Plant response rating, Nightshade, E. B.) | pest or weed control at 62 g/ha ([10]; Echinochloa crus-galli, Flood (flooded paddy test), 62 g ai/ha, scale 0 to 100, 0 no effect, 100 complete control, read-out: Plant response rating, Barnyardgrass) | pest or weed control at 31 g/ha ([10]; Echinochloa crus-galli, Flood, 31 g ai/ha, scale 0 to 100, read-out: Plant response rating, Barnyardgrass)

Cc1cc(-c2ccc(C(F)(F)F)cc2)nn1-c1c(OC(=O)C(C)(C)C)cnn(C)c1=O [Compound 2]
60: Plant response rating, Velvetleaf [6, 27]
80: Plant response rating, Corn (corn (Zea mays); [27]) | Plant response rating, Crabgrass, Large [3, 26]
45: Plant response rating, Barnyardgrass [10, 22]
90: Plant response rating, Corn (corn (Zea mays); [26]) | Plant response rating, Foxtail, Giant [2, 26] | Plant response rating, Wheat [7, 26] | Plant response rating, Wheat [7, 27] | Plant response rating, Foxtail, Green [9, 16]
100: Plant response rating, Barnyardgrass [1, 26] | Plant response rating, Barnyardgrass [1, 27] | Plant response rating, Foxtail, Giant [2, 27] | Plant response rating, Crabgrass, Large [3, 27] | Plant response rating, Foxtail, Green [9, 18] | Plant response rating, Foxtail, Green [9, 19]
0: Plant response rating, Morningglory [4, 26] | Plant response rating, Morningglory [4, 27] | Plant response rating, Pigweed [5, 26] | Plant response rating, Pigweed [5, 27] | Plant response rating, Nightshade, E. B. [8, 15] | Plant response rating, Nightshade, E. B. ([8]; 62 g ai/ha, scale 0 to 100) | Plant response rating, Nightshade, E. B. ([8]; 125 g ai/ha, scale 0 to 100) | Plant response rating, Nightshade, E. B. ([8]; 250 g ai/ha, scale 0 to 100) | Plant response rating, Barnyardgrass [10, 20] | Plant response rating, Barnyardgrass [10, 23]
95: Plant response rating, Foxtail, Green [9, 17]
40: Plant response rating, Velvetleaf [6, 26]
20: Plant response rating, Barnyardgrass [10, 21]
